# Results taken from EP0392666A2, “Anti-HIV compositions” (JOHNSON MATTHEY PUBLIC LIMITED COMPANY, priority 1989, dated 1990).
# Where two headings read alike, the source gives them in different places.
# Legend:
# [1] = system: HIV-2 (LAV-2 ROD); test: MTT method anti-HIV screen in MT-4 cells infected with HIV-2; assay type: cell-based; details: for EC50: Human immunodeficiency virus 2, MT4, 120 h, read-out: ED₅₀; for EC50 / ED₅₀: antiviral activity, MT-4 cells infected with HIV-2 (LAV-2 ROD) at 100 CCID₅₀, 5 days; for SI: Selectivity Index, ratio of CD₅₀ to ED₅₀, HIV-2, 7200 min
# Procedure: (§1) The compounds of the invention were tested in a screen by the MTT method (J. Virol. Methods 120: 309-321 [1988]). MT-4 cells (2.5 x 10⁴ /well) were infected with HIV-1 (HTLV-IIIB) or HIV-2 (LAV-2 ROD) at a concentration of 100 CCID₅₀ and incubated in the presence of various concentrations of the test compounds, which were added immediately after infection with the virus. After 5 days culture at 37°C in a CO₂ incubator, the number of viable cells was assessed by the MTT (tetrazolium) method. […] The potential therapeutic usefulness was assessed by calculating a Selectivity Index (SI) corresponding to the ratio of CD₅₀ to ED₅₀. A control test was performed using the known anti-HIV treatment AZT.
# [2] = Cytotoxicity by MTT method in MT-4 cells; assay type: cell-based, human; details: human, mt-4 cells, read-out: CD₅₀
# Procedure: as §1
# [3] = system: HIV-1 (HTLV-IIIB); test: microbe, parasite or virus in culture; assay type: cell-based; details: for EC50: Human immunodeficiency virus 1, MT4, 120 h, read-out: ED₅₀; for SI: Selectivity Index, ratio of CD₅₀ to ED₅₀, HIV-1, 7200 min
# Procedure: as §1
# [4] = system: MT-4 cells; test: Cytotoxicity by MTT method in MT-4 cells; assay type: cell-based, human
# Procedure: as §1
# [5] = antiviral activity, MT-4 cells infected with HIV-1 (HTLV-IIIB) at 100 CCID₅₀, 5 days
Compound,EC50 [1],SI [1],"CC50 at 120 h ([2]; HIV-1, 5 days culture at 37°C)","CC50 at 120 h ([2]; HIV-2, 5 days culture at 37°C)","EC50 [3, 5]",SI [3],ED₅₀ [1],"CD₅₀ ([4]; HIV-1, 5 days culture at 37°C)","CD₅₀ ([4]; HIV-2, 5 days culture at 37°C)","ED₅₀ [3, 5]",EC50 [3]
"C1CNCCCNCCNCCCNC1 [B, 1,4,8,12-tetrazacyclopentadecane]",40.4 µg/mL,12,460 µg/mL,487 µg/mL,30.3 µg/mL,15,,,,,
"C1CCNCCCNCCCNCCCNC1 [E, 1,5,9,14-tetrazacycloheptadecane]",> 8 µg/mL,<1,3.35 µg/mL,5.06 µg/mL,1.3 µg/mL,3,,,,,
"Zn complex of 1,5,9,13-tetrazacyclohexaadecane (Cl⁻) [Compound H]",,,,,,,>100.0 µg/mL,46.9 µg/mL,46.9 µg/mL,10.6 µg/mL,
c-[Rh cyclam (NO₂)₂]Cl [reference compound],,,,,,,,,,>250 µg/mL,
"Cc1cn([C@H]2C[C@H](N=[N+]=[N-])[C@@H](CO)O2)c(=O)[nH]c1=O [AZT, reference compound]",,,> 1 µg/mL,,,>125,,,,,< 0.008 µg/mL
"C1CCNCCCNCCNCCCNC1 [C, 1,4,8,13-tetrazacyclohexadecane. 4HCl]",> 500 µg/mL,<1,334 µg/mL,341 µg/mL,18.8 µg/mL,18,,,,,
"Zn complex of 1,4,8,12-tetrazacyclopentadecane (Cl⁻) [G]",,,,,,,>1000.0 µg/mL,194.2 µg/mL,218.3 µg/mL,6.96 µg/mL,
"C1CNCCNCCNCCNCCN1 [F, 1,4,7,10,13-pentazacyclopentadecane]",> 8 µg/mL,<1,3.36 µg/mL,6.03 µg/mL,> 8 µg/mL,<1,,,,,
"C1CNCCCNCCCNCCCNC1 [D, 1,5,9,13-tetrazacyclohexadecane]",> 40 µg/mL,<1,11.2 µg/mL,20.5 µg/mL,0.3 µg/mL,37,,,,,
"CC1CC(C)(C)NCCNC(C)CC(C)(C)NCCN1 (stereo not shown) [I, 5,5,7,12,12,14-hexamethyl-cyclam]",> 1000 µg/mL,<1,432 µg/mL,419 µg/mL,197 µg/mL,2,,,,,
"[Cu cyclam]Cl₂ [X, reference compound]",,,,,,,,,,>250 µg/mL,
